{"source": "patent US7078169B2", "about": "(priority 1999, dated 2006)", "key": {"HES1 reporter gene": {"system": "HES1 reporter gene", "type": "cell-based, S. cerevisiae", "conditions": "ABY140 (pdr5::KanMX yor1::KanMX) vs ABY11 wild-type", "description": "To further test the viability of this indicator gene in a high-throughput screen, the regulation of the HES1 reporter was tested in two different strain backgrounds ABY11 (MATa leu2Δ1 ura3-52) is a wild-type strain.\nThe ABY140 [HES1] strain was used to screen approximately 16,800 chemicals from a combinatorial chemistry library. […] Twenty-four of these chemical were further tested in a secondary screen for the ability to induce four additional indicator (also referred to as reporter) genes whose expression are also coordinately regulated with genes encoding ergosterol biosynthetic enzymes."}, "HES1 reporter": {"system": "HES1 reporter", "conditions": "384-well array, various concentrations, 30° C., 24 hrs", "description": "Cells were grown to mid-log phase at 30° C. in casamino acids medium (0 67% yeast nitrogen base, 2% glucose, 2% casamino acids). Cell density was adjusted prior to incubation in various concentrations of drug Arrays were incubated at 30° C. for 24 hrs prior to imaging."}, "yjl105w mutant strain": {"system": "yjl105w mutant strain", "assay": "Lovastatin drug disk on yeast lawn, yjl105w mutant vs wild-type", "type": "cell-based, S. cerevisiae", "conditions": "250 μg on sterile disk, 5×10^6 cells, overnight at 30° C.", "description": "FIG. 4. Effects of lovastatin on wild-type and YJL105w knockout yeast strains. 10 μl of a 25 mg/ml solution of lovastatin (250 μg) in ethanol was applied to a sterile drug disk on a lawn of yeast (5×10^6 cells, ABY363). The plates were incubated overnight at 30° C.\nTo test whether YJL105w has a role in isoprenoid metabolism, a yjl105w mutant where the entire ORF was replaced with the kanamycin resistance gene was constructed. Approximately 5×10^6 cells of the yjl105w mutant strain and a wild-type control strain (ABY363, MATα his3Δ1 leu2Δ0 lys2Δ0 ura3Δ0) were plated onto separate non-selective agar plates. The sterol biosynthetic inhibitor lovastatin (250 μg) was applied to a sterile disk on each lawn and the cells were allowed to grow overnight at 30° C."}}, "data": [{"smiles": "Clc1ccc(COC(Cn2ccnc2)c2ccc(Cl)cc2Cl)cc1", "note": "(stereo not shown) [Econazole]", "values": [{"measurement": "sensitivity of HES1 reporter gene induction in ABY140 compared to ABY11", "setting": "HES1 reporter gene", "result": "more sensitive"}, {"measurement": "induction of the HES1 reporter", "setting": "HES1 reporter", "result": "specifically induced"}]}, {"smiles": "CC[C@H](C)C(=O)O[C@H]1C[C@@H](C)C=C2C=C[C@H](C)[C@H](CC[C@@H]3C[C@@H](O)CC(=O)O3)[C@H]21", "note": "[lovastatin]", "values": [{"measurement": "resistance of yjl105w mutant strain to treatment relative to wild-type control (ABY363)", "setting": "yjl105w mutant strain", "result": "significantly more resistant"}]}, {"smiles": "Nc1[nH]c(=O)ncc1F", "note": "[Flucytosine]", "values": [{"measurement": "sensitivity of HES1 reporter gene induction in ABY140 compared to ABY11", "setting": "HES1 reporter gene", "result": "not"}]}]}
